Test results published in ChEMBL document CHEMBL5154926, “Discovery of a Novel Series of Imipridone Compounds as Homo sapiens Caseinolytic Protease P Agonists with Potent Antitumor Activities In Vitro and In Vivo” (J Med Chem, 2022).
pEC50, pIC50: −log10 of the molar value. Values after ≈ are worked out from the molar mass of the structure shown.

How the values were obtained:
[1] = tested on: HT-29; experiment: cells; conditions: Homo sapiens, HT-29, 48 h
Description: Antiproliferative activity against human HT-29 cells incubated for 48 hrs by CCK-8 assay

[2] = tested on: SW480; experiment: cells; conditions: Homo sapiens, SW480, 48 h
Description: Antiproliferative activity against human SW480 cells incubated for 48 hrs by CCK-8 assay

[3] = tested on: HCT-116; experiment: cells; conditions: Homo sapiens, HCT-116, 48 h
Description: Antiproliferative activity against human HCT-116 cells incubated for 48 hrs by CCK-8 assay

[4] = molecular target: ATP-dependent Clp protease proteolytic subunit, mitochondrial (Homo sapiens, UniProt Q16740); experiment: Agonist activity at human CLpP (57 to 277 amino acids) expressed in Escherichia coli using fluorogenic peptide AC-WLA-AMC as substrate incubated for 10 mins by fluorescence based assay
Chain of ATP-dependent Clp protease proteolytic subunit, mitochondrial (Q16740 whole entry, the tested form may be a part): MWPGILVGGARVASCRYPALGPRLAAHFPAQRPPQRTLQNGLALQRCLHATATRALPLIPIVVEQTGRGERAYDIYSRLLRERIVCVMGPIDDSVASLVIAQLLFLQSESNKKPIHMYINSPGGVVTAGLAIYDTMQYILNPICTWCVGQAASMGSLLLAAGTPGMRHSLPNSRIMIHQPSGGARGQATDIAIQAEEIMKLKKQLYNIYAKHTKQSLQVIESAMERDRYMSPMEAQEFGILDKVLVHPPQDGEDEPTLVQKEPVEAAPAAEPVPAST

[5] = tested on: HCT-15; experiment: cells; conditions: Homo sapiens, HCT-15, 48 h
Description: Antiproliferative activity against human HCT-15 cells incubated for 48 hrs by CCK-8 assay

[6] = tested on: DLD-1; experiment: cells; conditions: Homo sapiens, DLD-1, 48 h
Description: Antiproliferative activity against human DLD-1 cells incubated for 48 hrs by CCK-8 assay

[7] = tested on: SW-620; experiment: cells; conditions: Homo sapiens, SW-620, 48 h
Description: Antiproliferative activity against human SW-620 cells incubated for 48 hrs by CCK-8 assay

[8] = Stability in rat liver microsomes assessed as half life at 1.5 uM measured upto 90 mins in presence of NADPH by LC/MS analysis; format: ADME, Microsome; conditions: 1.5 h
[9] = 1-octanol/water partition coefficient, log P of the compound agitated for 4 hrs measured by shake flask assay based HPLC analysis; format: physicochemical
[10] = Stability in human liver microsomes assessed as intrinsic clearance at 1.5 uM measured upto 90 mins in presence of NADPH by LC/MS analysis; format: ADME, Microsome; conditions: read-out: CLH
[11] = Aqueous solubility of the compound agitated for 24 hrs by HPLC analysis; format: physicochemical; conditions: buffer
[12] = Stability in human liver microsomes assessed as half life at 1.5 uM measured upto 90 mins in presence of NADPH by LC/MS analysis; format: ADME, Microsome; conditions: microsomes, 1.5 h, 1.5 µM

Structure (SMILES) | pIC50 [3] | pEC50 [4] | further results
Cc1ccc(CN2CCc3c(c(=O)nc4n3CCN4Cc3ccccc3C)C2)cc1 | 5.27 | 6.19 | 
Cc1ccccc1CN1CCn2c1nc(=O)c1c2CCN(CCc2ccccc2)C1 | 5.22 | 5.96 | 
O=c1nc2n(c3c1CN(Cc1ccccc1)CC3)CCN2CC1CC1 | < 5.00 | 5.91 | 
Cc1ccccc1CN1CCn2c1nc(=O)c1c2CCN(CC2CC2)C1 | < 5.00 | < 5.00 | 
Cc1ccccc1CN1CCn2c1nc(=O)c1c2CCN(Cc2cccnc2)C1 | < 5.00 | 5.79 | 
Cc1ccccc1CN1CCn2c1nc(=O)c1c2CCN(C(=O)Cc2ccccc2)C1 | < 5.00 | < 5.00 | 
Cc1ccccc1CN1CCn2c1nc(=O)c1c2CCN(CC2CCCCC2)C1 | < 5.00 | 5.62 | 
CCN1CCc2c(c(=O)nc3n2CCN3Cc2ccccc2C)C1 | < 5.00 | < 5.00 | 
O=c1nc2n(c3c1CN(Cc1ccccc1)CC3)CCN2Cc1ccc(C(F)(F)F)cc1 | 6.49 | 6.54 | 
Cc1ccccc1CN1CCn2c1nc(=O)c1c2C(F)(F)CN(Cc2ccccc2)C1 | 5.29 | 6.30 | 
COc1ccccc1CN1CCn2c1nc(=O)c1c2CCN(Cc2ccccc2)C1 | 5.87 | 6.96 | 
CN1CCn2c1nc(=O)c1c2CCN(Cc2ccccc2)C1 | < 5.00 | < 5.00 | 
Cc1ccccc1CN1CCn2c1nc(=O)c1c2CCN(CCCCc2ccccc2)C1 | < 5.00 | < 5.00 | 
Cc1ccccc1CN1C(=O)C2=C(CCN(Cc3ccccc3)C2)N2CCN=C12 [DORDAVIPRONE] |  |  | t1/2 [8]: 10.5 min; logP at 4 h [9]: 2.93; CLint scaled at 1.5 µM [10]: 187 mL/min/kg; solubility at 24 h [11]: 200 µM (≈ 77.4 µg/mL)
O=c1nc2n(c3c1CN(Cc1ccccc1)CC3)CCN2CCc1ccccc1 | < 5.00 | 6.38 | 
O=c1nc2n(c3c1CN(Cc1ccccc1)CC3)CCN2Cc1ccc(F)cc1F | 7.00 | 6.80 | pIC50 [1]: 7.10; pIC50 [2]: 6.92; pIC50 [5]: 6.92; pIC50 [6]: 7.05; pIC50 [7]: 7.05
Cc1ccccc1CN1CCn2c1nc(=O)c1c2CCN(Cc2ccc(F)c(F)c2)C1 | 5.30 | 6.49 | 

Structure (SMILES) | pIC50 [3] | pEC50 [4] | further results
Cc1ccccc1CN1CCCn2c1nc(=O)c1c2CCN(Cc2ccccc2)C1 | < 5.00 | 5.45 | 
O=c1nc2n(c3c1CN(Cc1ccccc1)CC3)CCN2Cc1ccco1 | < 5.00 | 5.75 | 
Cc1cccc(CN2CCc3c(c(=O)nc4n3CCN4Cc3ccccc3C)C2)c1 | 5.82 | 6.29 | 
O=c1nc2n(c3c1CN(Cc1ccccc1)CC3)CCN2c1ccccc1 | < 5.00 | 5.98 | 
Cc1ccccc1CN1CCn2c1nc(=O)c1c2CCN(Cc2ccc(F)cc2)C1 | 5.00 | 6.19 | 
Cc1ccccc1CN1CCn2c1nc(=O)c1c2CCN(Cc2cccc(C#N)c2)C1 | 6.30 | 6.24 | 
Cc1ccccc1CN1CCn2c1nc(=O)c1c2CCN(C(=O)c2ccccc2)C1 | < 5.00 | < 5.00 | 
CC(C)CCN1CCn2c1nc(=O)c1c2CCN(Cc2ccccc2)C1 | 5.38 | 6.35 | 
CCN1CCn2c1nc(=O)c1c2CCN(Cc2ccccc2)C1 | < 5.00 | < 5.00 | 
Cc1ccccc1CN1CCn2c1nc(=O)c1c2CCN(c2nncs2)C1 | < 5.00 | < 5.00 | 
Cc1ccccc1CN1CCn2c1nc(=O)c1c2CCN(Cc2ccccc2C#N)C1 | < 5.00 | 6.18 | 
Cc1ccccc1CN1CCn2c1nc(=O)c1c2CCN(Cc2ccncc2)C1 | < 5.00 | 5.79 | 
O=c1nc2n(c3c1CN(Cc1ccccc1)CC3)CCN2CC1CCCCC1 | 5.61 | 6.89 | 
Cc1ccccc1CN1CCn2c1nc(=O)c1c2CCN(Cc2ccc(F)cc2F)C1 | < 5.00 | 6.01 | 
Cc1ccccc1CN1CCn2c1nc(=O)c1c2CCN(CC(C)C)C1 | < 5.00 | < 5.00 | 
O=C(c1ccc(F)cc1)C1CCN(CCn2c(=O)[nH]c3ccccc3c2=O)CC1 [KETANSERIN] |  |  | t1/2 [8]: 18.5 min; t1/2 [12]: 34 min; CLint scaled at 1.5 µM [10]: 51.1 mL/min/kg

Continued, in another order:

pIC50 [3] | pEC50 [4] | Structure (SMILES) | further results
7.10 | 6.89 | O=c1nc2n(c3c1CN(Cc1ccccc1)CC3)CCN2Cc1ccc(F)cc1 | pIC50 [1]: 6.40; pIC50 [2]: 6.77; pIC50 [5]: 6.68; pIC50 [6]: 7.05; pIC50 [7]: 6.72
6.66 | 6.59 | O=c1nc2n(c3c1CN(Cc1ccccc1)CC3)CCN2Cc1cccc(F)c1 | 
6.54 | 6.36 | O=c1nc2n(c3c1CN(Cc1ccccc1)CC3)CCN2Cc1ccccc1F | 
< 5.00 | 5.98 | O=c1nc2n(c3c1CN(Cc1ccccc1)CC3)CCN2Cc1cccnc1 | 
6.68 | 6.49 | Cc1ccc(CN2CCn3c2nc(=O)c2c3CCN(Cc3ccccc3)C2)cc1 | 
6.72 | 6.55 | O=c1nc2n(c3c1CN(Cc1ccccc1)CC3)CCN2Cc1cccc(Cl)c1 | 
< 5.00 | 5.95 | O=c1nc2n(c3c1CN(Cc1ccccc1)CC3)CCN2Cc1ccncc1 | 
5.92 | 7.00 | COc1cccc(CN2CCn3c2nc(=O)c2c3CCN(Cc3ccccc3)C2)c1 | 
6.51 | 6.44 | O=c1nc2n(c3c1CN(Cc1ccccc1)CC3)CCN2Cc1ccc2ccccc2c1 | 
6.28 | 6.92 | O=c1nc2n(c3c1CN(Cc1ccccc1)CC3)CCN2Cc1ccccc1 | 
7.00 | 6.52 | O=c1nc2n(c3c1CN(Cc1ccccc1)CC3)CCN2Cc1ccc(F)c(F)c1 | pIC50 [1]: 7.30; pIC50 [2]: 6.92; pIC50 [5]: 6.70; pIC50 [6]: 6.82; pIC50 [7]: 6.82
5.94 | 6.30 | COc1ccc(CN2CCn3c2nc(=O)c2c3CCN(Cc3ccccc3)C2)cc1 | 
6.96 | 6.68 | O=c1nc2n(c3c1CN(Cc1ccccc1)CC3)CCN2Cc1ccc(Br)c(F)c1 | 
6.26 | 6.40 | O=c1nc2n(c3c1CN(Cc1ccccc1)CC3)CCN2Cc1ccc(Br)cc1 | 
6.21 | 6.44 | O=c1nc2n(c3c1CN(Cc1ccccc1)CC3)CCN2Cc1cccc(Br)c1 | 
6.52 | 6.41 | Cc1cccc(CN2CCn3c2nc(=O)c2c3CCN(Cc3ccccc3)C2)c1 | 
6.51 | 6.72 | O=c1nc2n(c3c1CN(Cc1ccccc1)CC3)CCN2Cc1ccccc1Cl | 
7.10 | 6.52 | O=c1nc2n(c3c1CN(Cc1ccccc1)CC3)CCN2Cc1ccc(Cl)cc1 | pIC50 [1]: 7.15; pIC50 [2]: 7.00; pIC50 [5]: 6.60; pIC50 [6]: 7.00; pIC50 [7]: 6.77
